Columns and labels:
Type in all cases: in vivo
[1] = system: annual broad-leaved weeds (Lindernia spp., Rotala indica); experiment: Test Example 1: herbicidal effects, paddy-field pot test; details: wettable powder applied 3 days after transplanting, judged after 25 days
Summary of the method: (§1)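 Paddy-soil pots sown with weed seeds, germinated Cyperus serotinus tubers and 2.2-leaf rice transplants, kept flooded in a greenhouse. Wettable powder diluted in water applied at set dosage 3 days after transplanting. Weed control and rice injury scored 25 days later on a 0-5 growth-inhibition scale.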

Scirpus joncoides [2] = experiment: as above; details: wettable powder applied 3 days after transplanting, judged after 25 days
Summary of the method: as §1

[3] = system: barnyardgrass (Echinochloa oryzicola Vasing.); experiment: as above; details: wettable powder applied 3 days after transplanting, judged after 25 days
Summary of the method: as §1

Cyperus serotinus [4] = experiment: as above; details: wettable powder applied 3 days after transplanting, judged after 25 days
Summary of the method: as §1

[5] = system: transplanted paddy-field rice; experiment: Test Example 4: crop injury against transplanted paddy-field rice; details: no second compound, after 25 days
Summary of the method: (§2)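 Flooded greenhouse pots of paddy soil were sown in the top 1 cm with dormancy-broken weed seeds and planted with tubers, and 2.2-leaf rice was transplanted. Three days later, water-diluted wettable powder was applied at set dosages, and growth inhibition was rated 25 days after that on a 0 (0–15%) to 5 (96–100%) scale.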

[6] = system: indian mustard (Brassica juncea (L.) Czern. et Coss); experiment: Test Example 2: herbicidal effects (soil treatment); details: dosage 5 kg/a; soil treatment the day after seeding; judged after 21 days
Text: (§3) Judgment Standard • 0: Growth inhibition rate; 0 to 10% • 1: Growth inhibition rate; 11 to 30% • 2: Growth inhibition rate; 31 to 50% • 3: Growth inhibition rate; 51 to 70% • 4: Growth inhibition rate; 71 to 90% • 5: Growth inhibition rate; 91 to 100%.
(§4) Upland soil was filled in 150 cm^2 pot, and seeds of barnyardgrass and indian mustard (Brassica juncea (L.) Czern. et Coss) were sowed, and grown in a greenhouse. At the next day of seeding, a predetermined chemical dosage of the wettable powder prepared in accordance with Preparation example 1 was diluted in water and applied to soil surface. After 21 days from the treatment, herbicidal effects were judged in accordance with the judgment standard of Test example 1, and the results were shown in Table 3.

barnyardgrass = experiment: as above; details: dosage 5 kg/a; soil treatment the day after seeding; judged after 21 days
Text: as §3, §4

[7] = system: annual broad-leaved weeds (Lindernia spp. and Rotala indica); experiment: Test Example 4: herbicidal effects of mixed wettable powder, paddy-field pot test; details: no second compound, after 25 days
Summary of the method: as §2

Scirpus joncoides [8] = experiment: as above; details: no second compound, after 25 days
Summary of the method: as §2

[9] = system: barnyardgrass (Echinochloa oryzicola Vasing.); experiment: as above; details: no second compound, after 25 days
Summary of the method: as §2

Eleocharis kuroguwai = experiment: as above; details: no second compound, after 25 days
Summary of the method: as §2

Cyperus serotinus [10] = experiment: as above; details: no second compound, after 25 days
Summary of the method: as §2

Sagittaria pygmaea = experiment: as above; details: no second compound, after 25 days
Summary of the method: as §2

[11] = system: transplanted paddy-field rice; experiment: Test Example 1: crop injury against transplanted paddy-field rice; details: wettable powder applied 3 days after transplanting, judged after 25 days
Summary of the method: as §1

SMILES | Herbicidal effects Broad leaf ([1]; chemical dosage 10 g/a) | Herbicidal effects Broad leaf ([1]; chemical dosage 20 g/a) | Herbicidal effects Scirpus joncoides (Scirpus joncoides [2]; chemical dosage 10 g/a) | Herbicidal effects Scirpus joncoides (Scirpus joncoides [2]; chemical dosage 20 g/a) | Herbicidal effects Barnyard grass ([3]; chemical dosage 10 g/a) | Herbicidal effects Barnyard grass ([3]; chemical dosage 20 g/a) | Herbicidal effects Cyperus serotinus (Cyperus serotinus [4]; chemical dosage 10 g/a) | Herbicidal effects Cyperus serotinus (Cyperus serotinus [4]; chemical dosage 20 g/a) | Crop injury against transplanted rice ([5]; derivative 5 g/a) | Crop injury against transplanted rice ([5]; derivative 10 g/a) | Herbicidal effects indian mustard [6] | Herbicidal effects Barnyard-grass (barnyardgrass) | Herbicidal effects Broad leaf ([7]; derivative 5 g/a) | Herbicidal effects Broad leaf ([7]; derivative 10 g/a) | Herbicidal effects Scirpus joncoides (Scirpus joncoides [8]; derivative 5 g/a) | Herbicidal effects Scirpus joncoides (Scirpus joncoides [8]; derivative 10 g/a) | Herbicidal effects Barnyard grass ([9]; derivative 5 g/a) | Herbicidal effects Barnyard grass ([9]; derivative 10 g/a) | Crop injury against transplanted rice ([11]; chemical dosage 10 g/a) | Crop injury against transplanted rice ([11]; chemical dosage 20 g/a) | further results
Oc1cc(Cl)nnc1Oc1cccc2c1CCC2 [Example 171] | 5 (Growth inhibition rate; 91 to 100%) | 5 (Growth inhibition rate; 91 to 100%) | 5 (Growth inhibition rate; 91 to 100%) | 5 (Growth inhibition rate; 91 to 100%) | 3 (Growth inhibition rate; 51 to 70%) | 4 (Growth inhibition rate; 71 to 90%) | 5 (Growth inhibition rate; 91 to 100%) | 5 (Growth inhibition rate; 91 to 100%) | 0 (Growth-inhibition rate; 0 to 15%) | 0 (Growth-inhibition rate; 0 to 15%) | 5 (Growth inhibition rate; 91 to 100%) | 5 (Growth inhibition rate; 91 to 100%) | 5 (Growth inhibition rate; 96 to 100%) | 5 (Growth inhibition rate; 96 to 100%) | 5 (Growth inhibition rate; 96 to 100%) | 5 (Growth inhibition rate; 96 to 100%) | 2 (Growth inhibition rate; 36 to 55%) | 3 (Growth inhibition rate; 56 to 75%) | 0 (Growth inhibition rate; 0 to 10%) | 0 (Growth inhibition rate; 0 to 10%) | Herbicidal effects Eleocharis kuroguwai (Eleocharis kuroguwai; derivative 5 g/a): 2 (Growth inhibition rate; 36 to 55%); Herbicidal effects Eleocharis kuroguwai (Eleocharis kuroguwai; derivative 10 g/a): 3 (Growth inhibition rate; 56 to 75%); Herbicidal effects Cyperus serotinus (Cyperus serotinus [10]; derivative 5 g/a): 5 (Growth inhibition rate; 96 to 100%); Herbicidal effects Cyperus serotinus (Cyperus serotinus [10]; derivative 10 g/a): 5 (Growth inhibition rate; 96 to 100%); Herbicidal effects Sagittaria pygmaea (Sagittaria pygmaea; derivative 5 g/a): 5 (Growth inhibition rate; 96 to 100%); Herbicidal effects Sagittaria pygmaea (Sagittaria pygmaea; derivative 10 g/a): 5 (Growth inhibition rate; 96 to 100%)
Oc1cc(Cl)nnc1Oc1c(Cl)cccc1C1CC1 [Example 245] | 5 (Growth inhibition rate; 91 to 100%) | 5 (Growth inhibition rate; 91 to 100%) | 5 (Growth inhibition rate; 91 to 100%) | 5 (Growth inhibition rate; 91 to 100%) | 4 (Growth inhibition rate; 71 to 90%) | 4 (Growth inhibition rate; 71 to 90%) | 5 (Growth inhibition rate; 91 to 100%) | 5 (Growth inhibition rate; 91 to 100%) | 0 (Growth-inhibition rate; 0 to 15%) | 0 (Growth-inhibition rate; 0 to 15%) | 5 (Growth inhibition rate; 91 to 100%) | 3 (Growth inhibition rate; 51 to 70%) | 5 (Growth inhibition rate; 96 to 100%) | 5 (Growth inhibition rate; 96 to 100%) | 5 (Growth inhibition rate; 96 to 100%) | 5 (Growth inhibition rate; 96 to 100%) | 3 (Growth inhibition rate; 56 to 75%) | 4 (Growth inhibition rate; 7.6 to 95%) | 0 (Growth inhibition rate; 0 to 10%) | 0 (Growth inhibition rate; 0 to 10%) | Herbicidal effects Eleocharis kuroguwai (Eleocharis kuroguwai; derivative 5 g/a): 0 (Growth-inhibition rate; 0 to 15%); Herbicidal effects Eleocharis kuroguwai (Eleocharis kuroguwai; derivative 10 g/a): 1 (Growth inhibition rate; 16 to 35%); Herbicidal effects Cyperus serotinus (Cyperus serotinus [10]; derivative 5 g/a): 4 (Growth inhibition rate; 7.6 to 95%); Herbicidal effects Cyperus serotinus (Cyperus serotinus [10]; derivative 10 g/a): 5 (Growth inhibition rate; 96 to 100%); Herbicidal effects Sagittaria pygmaea (Sagittaria pygmaea; derivative 5 g/a): 4 (Growth inhibition rate; 7.6 to 95%); Herbicidal effects Sagittaria pygmaea (Sagittaria pygmaea; derivative 10 g/a): 5 (Growth inhibition rate; 96 to 100%)
Cc1cccc(Br)c1Oc1nnc(Cl)cc1O [Example 249] | 5 (Growth inhibition rate; 91 to 100%) | 5 (Growth inhibition rate; 91 to 100%) | 5 (Growth inhibition rate; 91 to 100%) | 5 (Growth inhibition rate; 91 to 100%) | 2 (Growth inhibition rate; 31 to 50%) | 3 (Growth inhibition rate; 51 to 70%) | 5 (Growth inhibition rate; 91 to 100%) | 5 (Growth inhibition rate; 91 to 100%) | 0 (Growth-inhibition rate; 0 to 15%) | 0 (Growth-inhibition rate; 0 to 15%) | 5 (Growth inhibition rate; 91 to 100%) | 4 (Growth inhibition rate; 71 to 90%) | 5 (Growth inhibition rate; 96 to 100%) | 5 (Growth inhibition rate; 96 to 100%) | 3 (Growth inhibition rate; 56 to 75%) | 5 (Growth inhibition rate; 96 to 100%) | 1 (Growth inhibition rate; 16 to 35%) | 2 (Growth inhibition rate; 36 to 55%) | 0 (Growth inhibition rate; 0 to 10%) | 3 (Growth inhibition rate; 51 to 70%) | Herbicidal effects Eleocharis kuroguwai (Eleocharis kuroguwai; derivative 5 g/a): 1 (Growth inhibition rate; 16 to 35%); Herbicidal effects Eleocharis kuroguwai (Eleocharis kuroguwai; derivative 10 g/a): 2 (Growth inhibition rate; 36 to 55%); Herbicidal effects Cyperus serotinus (Cyperus serotinus [10]; derivative 5 g/a): 5 (Growth inhibition rate; 96 to 100%); Herbicidal effects Cyperus serotinus (Cyperus serotinus [10]; derivative 10 g/a): 5 (Growth inhibition rate; 96 to 100%); Herbicidal effects Sagittaria pygmaea (Sagittaria pygmaea; derivative 5 g/a): 5 (Growth inhibition rate; 96 to 100%); Herbicidal effects Sagittaria pygmaea (Sagittaria pygmaea; derivative 10 g/a): 5 (Growth inhibition rate; 96 to 100%)
Cc1ccc2ccoc2c1Oc1nnc(Cl)cc1O [Example 310] | 5 (Growth inhibition rate; 91 to 100%) | 5 (Growth inhibition rate; 91 to 100%) | 5 (Growth inhibition rate; 91 to 100%) | 5 (Growth inhibition rate; 91 to 100%) | 4 (Growth inhibition rate; 71 to 90%) | 5 (Growth inhibition rate; 91 to 100%) | 5 (Growth inhibition rate; 91 to 100%) | 5 (Growth inhibition rate; 91 to 100%) | – | – | 5 (Growth inhibition rate; 91 to 100%) | 5 (Growth inhibition rate; 91 to 100%) | – | – | – | – | – | – | 0 (Growth inhibition rate; 0 to 10%) | 0 (Growth inhibition rate; 0 to 10%) | –
